Assay results reported in patent publication US10954306B2 (priority 2015, dated 2021).
Where no end group is shown, it is not given here.

Legend:
[1] = system: antibody (polyclonal anti-T14); test: ELISA motif determination with linear peptide variants; format: binding, rabbit; details: 100 nM peptide, FIGS. 5-10
Procedure: The standard curves and the samples were run in triplicate. For the detection of T14, Pep4, T15 and amyloid, 8 nanomolar concentrations of each were used for the ELISA. On the other hand, for the motif determination experiment, only one concentration of each of the peptide variants was used of 100 nM. For the detection of T14 on rat brain samples, different dilutions of the protein were used. […] The standard curve for determination of T14 peptide in brain tissue and the brain tissue samples were diluted in PBS buffer. The standard curves ranged from 8 to 100 nM of T14. Briefly, 96-well immunoplates (NUNC) were coated with 100 μl/well of sample or standard T14, covered with parafilm and incubated overnight at 4° C. The following day the sample was removed by flicking the plate over a sink with running water, and 200 μl of the blocking solution containing 2% Bovine Serum Albumin (BSA) in Tris-Buffered Saline and Tween 20 (TBS-T) was added and incubated for 4 h at room temperature. Blocking solution was then removed and 100 μl of antibody, diluted in blocking solution to 1 μg/ml, was added and incubated overnight at 4° C. The primary antibody was removed the next day and wells were washed 3 times with 200 μl of TBS-T. After, 100 μl of secondary antibody diluted in blocking solution to […] was added and incubated for 2 h at room temperature; the plate was covered with parafilm during all incubations. After 2 h, the plate was washed 4 times with TBS-T. The addition of 3,3,5,5-tetramethylbenzidine started the colour reaction.
The inventors investigate the immunospecificity of the antibody of the invention by carrying out binding experiments with a series of different linear peptides.

[2] = T14 aggregation by WB and ELISA; format: physicochemical; details: 200 μM, neutralised PBS, 0-4 hours at 25° C.
Procedure: Exogenous T14 stock solution (20 mM) solution was created by resuspension in distilled water. Subsequently, stock solution was diluted to a working stock solution (400 μM) with PBS (pH 10.5). Aggregation was initiated by neutralising the working stock solution by adding PBS (pH 5) to create a final concentration of 200 μM, which was incubated for 0, 1, 2, 3, 4 hours at 25° C. Moreover, T14 monomer control was created by diluting the working stock with PBS (pH 10.5) to 200 μM and incubating at 25° C. for 4 hours. A further no peptide control was created by mixing together pH 5 and pH 10.5 PBS and incubating at 25° C. for 4 hours. WB (A) and ELISA (B) were then conducted on the above T14 aggregation samples and quantified;

[3] = biological target: α7 nicotinic-receptor (Homo sapiens, UniProt P36544); details: cited from earlier work
[4] = system: rat brain slices; details: cited from earlier work
[5] = system: compensatory AChE release; details: cited from earlier work

α7 nicotinic-receptor, sequence (P36544 23-502): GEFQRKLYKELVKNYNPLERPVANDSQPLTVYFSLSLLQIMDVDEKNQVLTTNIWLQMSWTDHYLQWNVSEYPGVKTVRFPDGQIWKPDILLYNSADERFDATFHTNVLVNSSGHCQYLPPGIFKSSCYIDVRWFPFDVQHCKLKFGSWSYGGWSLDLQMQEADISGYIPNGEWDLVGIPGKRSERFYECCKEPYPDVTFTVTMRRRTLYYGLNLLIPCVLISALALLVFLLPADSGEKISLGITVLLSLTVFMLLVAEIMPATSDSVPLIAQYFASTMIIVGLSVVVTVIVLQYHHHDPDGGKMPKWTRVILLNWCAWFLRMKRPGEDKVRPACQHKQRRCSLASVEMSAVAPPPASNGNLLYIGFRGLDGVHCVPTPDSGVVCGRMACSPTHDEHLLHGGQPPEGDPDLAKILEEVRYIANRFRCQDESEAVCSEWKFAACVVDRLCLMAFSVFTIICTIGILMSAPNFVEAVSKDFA

AEFHRWSSYMVHWK [Peptide T14]
recognition of the peptide by the antibody (ELISA) [1]: strongly binds | T14 aggregation [2]: grows exponentially | T14 monomer pool [2]: remains unchanged

EFHRWSSYMVHWK [Peptide 1305]
recognition of the peptide by the antibody (ELISA) [1]: strongly binds

FHRWSSYMVHWK [Peptide 1206]
recognition of the peptide by the antibody (ELISA) [1]: strongly binds

HRWSSYMVHWK [Peptide 1107]
recognition of the peptide by the antibody (ELISA) [1]: strongly binds

NBP14 (AEFHRWSSYMVHWK; not fully specified)
protection of cells from linear T14, T30 and β-amyloid toxicity [3]: protect cells | effect on Ca2+ concentrations ([4]; given alone): no significant effect | effect on Ca2+ concentrations in presence of T30 ([4]; with T30): blocks the effects of T30 | compensatory AChE release induced by the toxicity of linear T14 and T30 [5]: blocks
